One may read the MIC as the lowest concentration found to suppress growth.

The results in this text go back to publication PMC12213745, “Compounds from Cyclocarya paliurus leaves inhibit binary division of methicillin-resistant Staphylococcus aureus by disrupting FtsZ dynamic” (Frontiers in Microbiology, 2025).

Values after ≈ are worked out from the molar mass of the structure shown. Where two headings read alike, the source gives them in different places. Bounds are passed on as bounds.

The subject of one assay is E. coli ATCC25922. Briefly: MIC, broth microdilution (CLSI). Type of assay: cell-based. The settings on record: Escherichia coli. From the text: (§1) Staphylococcus aureus ATCC25923 and Escherichia coli ATCC25922 were obtained from the American Type Culture Collection (ATCC, Manassas, VA, USA). The Methicillin-resistant S. aureus (MRSA) clinical isolate MRSA-4, previously confirmed as mecA-positive and characterized for its antibiotic resistance profile ([Sun et al., 2023]), was used in this study. Staphylococcus epidermidis (GDMCC 1.143), Enterococcus faecalis (GDMCC 1.164), and Salmonella enterica subsp. enterica (GDMCC 1.1114) were obtained from the Guangdong Microbial Culture Collection Center (GDMCC, Guangzhou, China). The Pseudomonas aeruginosa PA14 strain was kindly provided by Professor Min Wu (Southwest Medical University, China). All bacterial strains were routinely cultured in Mueller-Hinton broth (MHB) or Luria-Bertani (LB) broth medium at 37°C with shaking at 200 rpm. Vancomycin was purchased from Solarbio Science & Technology Co., Ltd. (Beijing, China), and oxacillin was obtained from Taiji Group Hengsheng Pharmaceutical Co., Ltd. (Chengdu, China). The polyclonal rabbit primary anti-body to FtsZ was purchased from Abcam PLC (Cambridge, UK). Alexa488-conjugated goat anti-rabbit IgG was purchased from ZSGB-BIO Biotechnology (Beijing, China). DAPI staining solution was purchased from Beyotime Biotechnology (Shanghai, China).
(§2) The minimum inhibitory concentrations (MICs) of the test compounds (AA, MA, and UA) were determined using the standard broth microdilution method in accordance with the Clinical and Laboratory Standards Institute (CLSI) guidelines ([Humphries et al., 2021]). Bacteria were cultured in MHB or LB broth at 37°C with shaking (200 rpm) to the logarithmic phase, then diluted to a final density of 1 × 10^6 CFU/mL. Test compounds (dissolved in DMSO) and positive controls (vancomycin and oxacillin) were diluted in MHB and serially twofold diluted in 96-well plates. Each well was inoculated with 100 μL of bacterial suspension (1 × 10^6 CFU/mL), yielding a final bacterial density of 5 × 10^5 CFU/mL and a total volume of 200 μL. The final concentrations tested were 128 to 1 μg/mL for AA, MA, and UA; 16 to 0.5 μg/mL for vancomycin; and 64 to 0.0625 μg/mL for oxacillin. DMSO was used as a solvent control. Plates were incubated statically at 37°C for 18–24 h. After incubation, the OD600 was measured using a microplate reader (SpectraMax i3x, Molecular Devices, CA, USA). The MIC was defined as the lowest compound concentration that caused ≥ 90% inhibition of bacterial growth compared to the drug-free growth control. All tests were performed in three independent biological replicates.
(§3) Following the isolation and identification of AA, MA, and UA from ECPL, we evaluated their antibacterial activity and spectrum. The MICs of the compounds were determined against MRSA-4, S. aureus ATCC25923, S. epidermidis, and E. faecalis (Gram-positive), as well as P. aeruginosa PA14, E. coli ATCC25922, and S. enterica subsp. Enterica (Gram-negative) using the standard broth microdilution method in accordance with CLSI guidelines ([Humphries et al., 2021]).
On the technique in general: Broth dilution looks for growth in wells or tubes with falling amounts of substance.

A further assay concerns E. faecalis. The assay can be described thus: MIC, broth microdilution (CLSI). It counts as cell-based. The settings on record: Enterococcus faecalis.
Text: as §1, §2, §3

The test system of a further assay is P. aeruginosa PA14. The assay can be described thus: MIC, broth microdilution (CLSI). The settings on record: Pseudomonas aeruginosa. It counts as cell-based.
Text: as §1, §2, §3

Assay [1] concerns S. aureus ATCC25923. Briefly: MIC, broth microdilution (CLSI). The settings on record: Staphylococcus aureus. It counts as cell-based.
Text: as §1, §2, §3

A further assay deals with S. epidermidis (1.143). Briefly: MIC, broth microdilution (CLSI). The settings on record: Staphylococcus epidermidis. Type of assay: cell-based.
Text: as §1, §2, §3

For assay [2], the system named is MRSA-4. The assay can be described thus: MIC, broth microdilution (CLSI). It counts as cell-based, Methicillin-resistant S. aureus. The settings on record: Staphylococcus aureus.
Text: as §1, §2, §3

Assay [3] deals with S. enterica subsp. Enterica (1.1114). Briefly: MIC, broth microdilution (CLSI). It counts as cell-based, Salmonella enterica subsp. enterica. The settings on record: Salmonella enterica.
Text: as §1, §2, §3

Assay [4] relates to MRSA-4. Briefly: Time-dependent killing assay. Type of assay: cell-based, Methicillin-resistant S. aureus. The settings on record: 2 × MIC. The procedure: An overnight culture of MRSA-4 was diluted 1:100 in fresh MHB and incubated at 37°C with shaking (200 rpm) until reaching mid-log phase (OD600 = 0.4–0.6). The culture was then adjusted to 1 × 10^6 CFU/mL and treated with AA, MA, or UA at concentrations of 1×, 2×, and 4 × MIC. 2 × MIC of vancomycin was used as a positive control, and an equivalent volume of DMSO served as the negative control. The cultures were incubated at 37°C with shaking (200 rpm) during the assay. At designated time points (0, 1, 2, 4, 8, and 24 h), samples were collected, serially diluted tenfold in sterile PBS, and 100 μL of appropriate dilutions were plated on LB agar. Plates were incubated at 37°C for 18–24 h, and viable bacteria were quantified. All experiments were performed in biological triplicates.
We next performed time-kill kinetics assays to characterize the time-dependent antibacterial effects of AA, MA, and UA against MRSA-4. Bacterial cultures were exposed to AA, MA, and UA at 1×, 2×, and 4 × their respective MICs, and viable CFU were counted at designated time points (0, 1, 2, 4, 8, and 24 h). As shown in the time-kill curves (Figure 1), treatment with 1 × or 2 × MIC of AA, MA, or UA led to an initial reduction in bacterial load within the first 2 h.

Assay [5] relates to S. aureus ATCC25923. Briefly: SEM analysis, cell long axis. Type of assay: cell-based, Staphylococcus aureus. The settings on record: 2 × MIC, 2 h, mean ± SD, PBS control 0.52 ± 0.05. The procedure: (§4) Scanning electron microscopy (SEM) was used to observe the morphological changes in bacterial cells treated with the isolated compounds. S. aureus ATCC 25923 and MRSA-4 were grown in MHB to mid-log phase (OD600 = 0.4–0.6) as previously described. The bacteria cultures were treated with AA, MA, or UA at 2 × MIC for 2 h at 37°C with shaking at 150 rpm. Untreated cultures (PBS group) served as the growth control. After incubation, bacterial cells were harvested by centrifugation and washed three times with PBS (pH 7.2). Coverslips (8 mm diameter) were cleaned with absolute ethanol under ultrasonication, air-dried, immersed in 0.1% (w/v) chitosan solution (dissolved in 1% acetic acid) for 5 s, and air-dried again at room temperature ([Su et al., 2022]). A 25 μL aliquot of the washed bacterial suspension was added to each coverslip and allowed to adhere for 1 h at room temperature. Adhered cells were fixed with 1 mL of 2.5% (v/v) glutaraldehyde at 4°C overnight. Fixed samples were rinsed 2–3 times with PBS (5 min per rinse), then dehydrated through a graded ethanol series: 50, 70, and 90% ethanol (each once for 5 min), followed by 100% ethanol (three times for 5 min each). After dehydration, samples were air-dried overnight at room temperature. SEM imaging was performed using an EVO 10 scanning electron microscope (Zeiss, Jena, Germany). Cell long-axis statistical analysis was conducted using ImageJ software (Version 1.42q, National Institutes of Health, MD, USA).
(§5) Having established the antibacterial activity of AA, MA, and UA, we next examined their effects on bacterial morphology. We employed SEM to examine the alterations induced by these compounds in S. aureus ATCC25923 and MRSA-4. Bacterial cultures were treated with AA, MA, or UA at 2 × MIC for 2 h, while untreated (PBS group) cultures served as negative controls. […] In PBS groups, both S. aureus ATCC25923 and MRSA-4 maintained typical spherical morphology with smooth and intact surfaces.

Assay [6] relates to MRSA-4. Briefly: SEM analysis, cell long axis. It counts as cell-based, Methicillin-resistant S. aureus. The settings on record: 2 × MIC, 2 h, mean ± SD, PBS control 0.53 ± 0.04. The procedure:
as §4, §5

For the compound `Cc1onc(-c2ccccc2)c1C(=O)N[C@@H]1C(=O)N2[C@@H]1SC(C)(C)[C@@H]2C(=O)O` [Oxa, Oxacillin, reference compound], the MIC with E. coli ATCC25922 (E. coli ATCC25922, ≥ 90% growth inhibition, 18–24 h, read-out: MIC) was greater than 64 µg/mL; in the assay on E. faecalis (E. faecalis, ≥ 90% growth inhibition, 18–24 h, read-out: MIC) it was 8 µg/mL (≈ 19.9 µM); in the assay with P. aeruginosa PA14 (P. aeruginosa PA14, ≥ 90% growth inhibition, 18–24 h, read-out: MIC), greater than 64 µg/mL; with S. aureus ATCC25923 [1] (S. aureus ATCC25923, ≥ 90% growth inhibition, 18–24 h, read-out: MIC), 0.125 µg/mL (≈ 0.311 µM); in the assay with S. epidermidis (1.143) (S. epidermidis (1.143), ≥ 90% growth inhibition, 18–24 h, read-out: MIC), 0.25 µg/mL (≈ 0.623 µM); with MRSA-4 [2] (MRSA-4, ≥ 90% growth inhibition, 18–24 h, read-out: MIC) it was 64 µg/mL (≈ 159 µM). Moreover, the MIC in [3] (S. enterica subsp. Enterica (1.1114), ≥ 90% growth inhibition, 18–24 h, read-out: MIC) is greater than 64 µg/mL.
Regarding `CN[C@H](CC(C)C)C(=O)N[C@H]1C(=O)N[C@@H](CC(N)=O)C(=O)N[C@H]2C(=O)N[C@H]3C(=O)N[C@H](C(=O)N[C@H](C(=O)O)c4cc(O)cc(O)c4-c4cc3ccc4O)[C@H](O)c3ccc(c(Cl)c3)Oc3cc2cc(c3O[C@@H]2O[C@H](CO)[C@@H](O)[C@H](O)[C@H]2O[C@H]2C[C@](C)(N)[C@H](O)[C@H](C)O2)Oc2ccc(cc2Cl)[C@H]1O` [Van, Vancomycin, reference compound], the MIC was greater than 16 µg/mL with E. coli ATCC25922 (ATCC25922); 1 µg/mL (≈ 0.69 µM) in the assay on E. faecalis; greater than 16 µg/mL in the assay on P. aeruginosa PA14 (PA14); 2 µg/mL (≈ 1.38 µM) against S. aureus ATCC25923 [1] (ATCC25923); 2 µg/mL (≈ 1.38 µM) with S. epidermidis (1.143); 2 µg/mL (≈ 1.38 µM) in the assay on MRSA-4 [2] (MRSA). In [3], this compound had an MIC greater than 16 µg/mL. Further, in the assay on MRSA-4 [4], the “time to reduce bacterial counts below the detection limit” value is given as no more than 8 h. For the same compound, the “length of long axis of cells” value is given as 0.61 ± 0.06 μm in the assay on S. aureus ATCC25923 [5] and 0.57 ± 0.06 μm with MRSA-4 [6].
